# Earlier results as cited in PMC11767451, “Novel Approaches to Monitor Pharmacokinetics and Metabolism of Gemcitabine-Ibandronate Conjugate in Mice and Dogs” (Molecules, 2025).
# System: bone-associated cancer cells
# Set-up: method as in PMID 30413669
# Conditions: cited from earlier work
structure (smiles),measurement,setting,value
CC(O)(P(=O)(O)O)P(=O)(O)OP(=O)(O)OC[C@H]1O[C@@H](n2ccc(N)nc2=O)[C@@H](O)[C@@H]1O (stereo partly drawn) [MBC-11],bone localized effects compared to free cytarabine,clinical trials,2–20 fold
same,metabolic activity of bone-associated cancer cells,in humans,significant reductions
same,tolerability,in humans,well tolerated
